In US12268674B2, “Mi-2β inhibitor as an immunotherapy agent” (BioVentures, LLC, priority 2021, dated 2025):

Assays:
TRMU = molecular target: T1, TRMU (Homo sapiens, UniProt O75648); assay: ATPase profile (ATP acyl phosphate probe); assay type: binding
T1 construct: to get the native cell lysate; endogenous in cells; host or cells: A375 cell lysate

ME2 = molecular target: T2, ME2 (Homo sapiens, UniProt P23368); assay: ATPase profile (ATP acyl phosphate probe); assay type: binding
T2 construct: to get the native cell lysate; endogenous in cells; host or cells: A375
T2 sequence (P23368 19-584): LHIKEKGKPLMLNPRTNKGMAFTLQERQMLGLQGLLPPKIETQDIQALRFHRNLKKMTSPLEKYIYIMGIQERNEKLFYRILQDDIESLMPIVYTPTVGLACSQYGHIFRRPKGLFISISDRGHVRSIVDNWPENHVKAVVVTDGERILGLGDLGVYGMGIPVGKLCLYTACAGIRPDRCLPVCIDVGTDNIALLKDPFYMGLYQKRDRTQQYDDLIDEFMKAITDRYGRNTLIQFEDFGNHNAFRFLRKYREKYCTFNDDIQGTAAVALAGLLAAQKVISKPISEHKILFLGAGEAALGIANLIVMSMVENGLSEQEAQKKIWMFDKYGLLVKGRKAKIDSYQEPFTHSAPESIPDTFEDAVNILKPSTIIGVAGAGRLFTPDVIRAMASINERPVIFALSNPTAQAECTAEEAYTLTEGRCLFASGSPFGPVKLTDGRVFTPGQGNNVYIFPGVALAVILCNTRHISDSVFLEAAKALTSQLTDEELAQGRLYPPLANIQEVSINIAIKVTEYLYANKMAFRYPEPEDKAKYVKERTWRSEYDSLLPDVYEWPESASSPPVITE

NUDT1 = molecular target: T3, NUDT1 (Homo sapiens, UniProt P36639); assay: ATPase profile (ATP acyl phosphate probe); assay type: binding
T3 construct: to get the native cell lysate; endogenous in cells; host or cells: A375

TOR2A, TOR2X = assay: ATPase profile (ATP acyl phosphate probe); assay type: binding; settings: SEQ ID NO: 205, ATP BS
UBA2 = molecular target: T4, UBA2 (Homo sapiens, UniProt Q9UBT2); assay: ATPase profile (ATP acyl phosphate probe); assay type: binding
T4 construct: to get the native cell lysate; endogenous in cells; host or cells: A375 cell lysate
T4 sequence (Q9UBT2 whole entry): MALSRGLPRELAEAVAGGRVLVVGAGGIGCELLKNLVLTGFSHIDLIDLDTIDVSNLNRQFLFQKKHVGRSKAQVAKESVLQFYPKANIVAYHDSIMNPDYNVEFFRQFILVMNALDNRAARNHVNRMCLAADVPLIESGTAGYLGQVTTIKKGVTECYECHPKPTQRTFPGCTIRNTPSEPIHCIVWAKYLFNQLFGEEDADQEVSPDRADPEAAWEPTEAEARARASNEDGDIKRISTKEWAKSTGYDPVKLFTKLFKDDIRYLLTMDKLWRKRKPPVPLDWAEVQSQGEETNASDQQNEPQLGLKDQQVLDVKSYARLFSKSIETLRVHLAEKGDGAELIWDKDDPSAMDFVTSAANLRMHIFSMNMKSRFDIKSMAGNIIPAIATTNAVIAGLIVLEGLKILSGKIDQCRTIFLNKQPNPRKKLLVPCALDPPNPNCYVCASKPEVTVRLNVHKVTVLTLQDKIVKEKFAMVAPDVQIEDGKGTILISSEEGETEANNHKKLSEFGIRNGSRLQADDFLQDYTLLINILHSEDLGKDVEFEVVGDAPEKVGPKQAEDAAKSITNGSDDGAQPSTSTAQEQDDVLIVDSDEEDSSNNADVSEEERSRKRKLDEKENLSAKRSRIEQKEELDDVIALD
T4 sequence (Q9UBE0 whole entry partner): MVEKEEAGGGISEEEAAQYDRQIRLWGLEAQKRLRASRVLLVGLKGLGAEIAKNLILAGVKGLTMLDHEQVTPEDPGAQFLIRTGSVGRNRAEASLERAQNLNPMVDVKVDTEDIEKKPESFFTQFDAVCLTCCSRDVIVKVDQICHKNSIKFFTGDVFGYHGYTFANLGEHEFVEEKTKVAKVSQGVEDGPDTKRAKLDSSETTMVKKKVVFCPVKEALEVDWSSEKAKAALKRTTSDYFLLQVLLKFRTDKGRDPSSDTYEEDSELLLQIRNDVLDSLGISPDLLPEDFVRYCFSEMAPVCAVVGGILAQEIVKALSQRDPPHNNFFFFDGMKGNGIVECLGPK

PMVK = molecular target: T5, PMVK (Homo sapiens, UniProt Q15126); assay: ATPase profile (ATP acyl phosphate probe); assay type: binding; settings: SEQ ID NO: 163, ATP BS
T5 construct: to get the native cell lysate; endogenous in cells; host or cells: A375 cell lysate
T5 sequence (Q15126 whole entry): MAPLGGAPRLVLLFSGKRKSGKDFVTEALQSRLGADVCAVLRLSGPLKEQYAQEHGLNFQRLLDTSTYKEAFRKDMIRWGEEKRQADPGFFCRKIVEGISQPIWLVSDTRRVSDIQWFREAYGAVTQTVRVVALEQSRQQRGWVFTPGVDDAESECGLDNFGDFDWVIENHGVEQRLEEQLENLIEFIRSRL

TOP2A, TOP2B = assay: ATPase profile (ATP acyl phosphate probe); assay type: binding; settings: SEQ ID NO: 202, ATP BS
PRKAG1, PRKAG2 = assay: ATPase profile (ATP acyl phosphate probe); assay type: binding; settings: PRKAG1, PRKAG2, SEQ ID NO: 169, ATP BS
ABCF1 = molecular target: T6, ABCF1 (Homo sapiens, UniProt Q8NE71); assay: ATPase profile (ATP acyl phosphate probe); assay type: binding; settings: ABCF1, SEQ ID NO: 16, ATP BS
T6 construct: to get the native cell lysate; host or cells: A375 cell lysate
T6 sequence (Q8NE71 whole entry): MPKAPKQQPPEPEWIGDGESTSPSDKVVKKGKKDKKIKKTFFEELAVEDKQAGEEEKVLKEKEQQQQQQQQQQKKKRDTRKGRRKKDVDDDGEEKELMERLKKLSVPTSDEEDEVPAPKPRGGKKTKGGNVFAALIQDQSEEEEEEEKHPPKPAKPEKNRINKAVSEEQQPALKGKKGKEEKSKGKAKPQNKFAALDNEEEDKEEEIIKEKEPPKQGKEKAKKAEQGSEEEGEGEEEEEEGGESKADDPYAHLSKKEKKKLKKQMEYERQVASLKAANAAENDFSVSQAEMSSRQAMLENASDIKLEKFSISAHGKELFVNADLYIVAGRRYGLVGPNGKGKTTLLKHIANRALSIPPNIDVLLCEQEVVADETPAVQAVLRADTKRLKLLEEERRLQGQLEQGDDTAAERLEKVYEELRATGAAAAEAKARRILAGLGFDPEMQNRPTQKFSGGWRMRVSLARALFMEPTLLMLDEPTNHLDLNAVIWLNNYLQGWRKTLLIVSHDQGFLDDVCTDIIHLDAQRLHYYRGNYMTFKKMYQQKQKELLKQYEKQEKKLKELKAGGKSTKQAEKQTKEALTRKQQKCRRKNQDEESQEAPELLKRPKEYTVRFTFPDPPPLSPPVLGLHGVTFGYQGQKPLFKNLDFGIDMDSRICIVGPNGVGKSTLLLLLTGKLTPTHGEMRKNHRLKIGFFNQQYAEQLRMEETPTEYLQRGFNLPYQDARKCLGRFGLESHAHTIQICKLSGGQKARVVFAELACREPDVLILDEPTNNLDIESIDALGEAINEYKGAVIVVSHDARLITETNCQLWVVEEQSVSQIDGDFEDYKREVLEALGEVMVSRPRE

UPF1 = molecular target: T7, UPF1 (Homo sapiens, UniProt Q92900); assay: ATPase profile (ATP acyl phosphate probe); assay type: binding
T7 construct: to get the native cell lysate; endogenous in cells; host or cells: A375 cell lysate
T7 sequence (Q92900 whole entry): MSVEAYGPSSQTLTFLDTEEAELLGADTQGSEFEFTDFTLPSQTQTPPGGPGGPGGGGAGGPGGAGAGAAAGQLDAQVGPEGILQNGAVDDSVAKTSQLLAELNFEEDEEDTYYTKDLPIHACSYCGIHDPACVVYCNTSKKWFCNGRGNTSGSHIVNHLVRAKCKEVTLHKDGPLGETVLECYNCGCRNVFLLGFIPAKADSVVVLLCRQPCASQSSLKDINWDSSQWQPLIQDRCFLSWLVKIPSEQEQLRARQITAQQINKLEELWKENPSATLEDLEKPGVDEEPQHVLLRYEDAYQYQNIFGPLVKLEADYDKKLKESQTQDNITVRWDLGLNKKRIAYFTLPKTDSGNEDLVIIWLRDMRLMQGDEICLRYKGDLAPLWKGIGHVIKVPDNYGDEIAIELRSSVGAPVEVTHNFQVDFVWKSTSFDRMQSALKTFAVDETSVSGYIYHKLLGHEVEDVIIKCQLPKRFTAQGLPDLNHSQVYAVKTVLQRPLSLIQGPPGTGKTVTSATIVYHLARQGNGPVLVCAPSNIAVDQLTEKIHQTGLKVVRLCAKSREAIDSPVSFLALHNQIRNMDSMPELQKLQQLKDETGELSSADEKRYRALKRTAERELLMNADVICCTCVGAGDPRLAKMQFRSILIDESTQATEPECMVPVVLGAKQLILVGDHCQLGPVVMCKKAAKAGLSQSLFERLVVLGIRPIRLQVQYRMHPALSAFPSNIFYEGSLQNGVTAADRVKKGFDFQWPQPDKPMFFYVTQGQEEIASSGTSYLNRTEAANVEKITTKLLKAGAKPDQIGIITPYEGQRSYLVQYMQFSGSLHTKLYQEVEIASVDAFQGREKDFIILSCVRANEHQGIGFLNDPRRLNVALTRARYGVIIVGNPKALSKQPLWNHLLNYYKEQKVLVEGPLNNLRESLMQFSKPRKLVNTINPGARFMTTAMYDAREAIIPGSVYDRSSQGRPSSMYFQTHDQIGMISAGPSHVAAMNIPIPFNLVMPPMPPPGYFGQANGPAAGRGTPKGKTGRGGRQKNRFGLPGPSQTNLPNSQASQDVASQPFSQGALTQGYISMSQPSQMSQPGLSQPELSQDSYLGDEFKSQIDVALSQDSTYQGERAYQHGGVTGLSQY

B16F10 melanoma graft = assay: Syngeneic melanoma graft mouse model
Protocol: To test Z36-MP5 function in syngeneic mouse model, B16F10 cells (1.5×105) were mixed with BD matrigel (Matrix Growth Factor Reduced) (BD, 354230) in 100 μl PBS, and then mouse subcutaneous injection and tumor graft monitor were performed as described above. Except that vehicle [5% (w/v) Kolliphor HS 15 (Sigma)] in normal saline or formulated 30 mg/kg Z36-MP5 was administered with i.p. injection once a day starting at day 6, together with i.p. injection of control IgG antibodies (10 mg/kg) or anti-PD-1 (RMP1-14, BioXCell, 10 mg/kg) on day 6, 9, 12, 15 and 18. The mice were euthanized after indicated days or when the allowable endpoint size (1 cm^3) was reached.
Tumors were minced with scissors, and then digested with the digestion buffer (RPMI 1640 medium, 5% FBS, 1% penicillin-streptomycin, 25 mM HEPES, and 300 U collagenase (Sigma C0130)) on a shaker at 37° C. for 2 hours. Single cells were prepared through a 70 m cell strainer. Erythrocytes were removed by incubation in red blood cell lysis buffer (R7757, Sigma) at room temperature for 5 min. The cells were prepared in PBS (with concentration of ˜2×10^7) for studies.
The single-cell suspension were fixed with 2% paraformaldehyde solution (J19943K2, Thermo Scientific). And then the cells were stained with the follow antibodies: anti-mouse CD45 APC (104, BD pharmingen, 561875), anti-mouse CD3e PE (145-2C11, BD pharmingen, 553063), anti-mouse CD4 FITC (RM4-5, BD pharmingen, 553046), anti-mouse CD4 PE/Cy7 (GK1.5, BioLegend, 100421), anti-mouse CD8 FITC (53-6.7, BD pharmingen, 553031), anti-mouse CD8a APC/Cy7 (53-6.7, BioLegend 100713), anti-mouse IFN-γ PE (XMG1.2, eBioscience, 12731181), anti-mouse CD69 PE (H1.2F3, Biolegend, 104508), anti-mouse CD25 Alexa Fluor 488 (PC61.5, eBioscience, 53025182), anti-mouse CD107a-V450 (1D4B, BD, 560648), anti-human/mouse granzyme B FITC (GB 11, BioLegend, 515403). The regulatory T cells in TILs were stained with the Mouse Regulatory T Cell Staining kit #1 (88-8111, ThermoFisher Scienctific), with antibodies of anti-mouse CD4 FITC (RM4-5), anti-mouse CD25 APC (PC61.5) anti-mouse Foxp3 PE (FJK-16s). BD LSRII was used for data acquisition and FlowJo was used for data analysis.

[1] = Z36-MP5 30 mg/kg combined with anti-PD-1 10 mg/kg, B16F10 graft

T1 sequence (O75648 whole entry): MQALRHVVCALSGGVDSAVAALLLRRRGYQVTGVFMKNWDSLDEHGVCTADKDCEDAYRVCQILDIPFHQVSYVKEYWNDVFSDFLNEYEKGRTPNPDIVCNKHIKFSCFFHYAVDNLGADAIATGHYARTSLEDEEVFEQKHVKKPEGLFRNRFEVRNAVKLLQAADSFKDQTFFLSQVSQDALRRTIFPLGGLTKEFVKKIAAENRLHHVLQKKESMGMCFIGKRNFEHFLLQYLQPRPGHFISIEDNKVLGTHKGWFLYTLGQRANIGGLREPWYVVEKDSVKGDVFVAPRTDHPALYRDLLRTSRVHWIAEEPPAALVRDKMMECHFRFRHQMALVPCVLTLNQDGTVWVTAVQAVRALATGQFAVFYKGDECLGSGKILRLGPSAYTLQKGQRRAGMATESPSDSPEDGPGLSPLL

## Cn1c(=O)[nH]c2ccc(-c3cccc(C(=O)NC4CCn5ccnc5C4)c3)cc21 (stereo not drawn) [Z36-MP5, 3-(3-methyl-2-oxo-2,3-dihydro-1H-benzo[d]imidazol-5-yl)-N-(5,6,7,8-tetrahydroimidazo[1,2-a]pyridin-7-yl)benzamide]
TRMU; SEQ ID NO: 211, ATP BS
  Inhibition (%) by 1 μM Z36-MP5: −13.98%
TRMU; SEQ ID NO: 212, ATP BS
  Inhibition (%) by 1 μM Z36-MP5: −2.57%
ME2; ME2, SEQ ID NO: 122, ATP BS
  Inhibition (%) by 1 μM Z36-MP5: −6.47%
ME2; ME2, SEQ ID NO: 123, ATP BS
  Inhibition (%) by 1 μM Z36-MP5: −16.71%
NUDT1; NUDT1, SEQ ID NO: 142, ATP BS
  Inhibition (%) by 1 μM Z36-MP5: 25.70%
NUDT1; NUDT1, SEQ ID NO: 143, ATP BS
  Inhibition (%) by 1 μM Z36-MP5: 22.17%
NUDT1; NUDT1, SEQ ID NO: 144, ATP BS
  Inhibition (%) by 1 μM Z36-MP5: 18.32%
TOR2A, TOR2X
  Inhibition (%) by 1 μM Z36-MP5: 0.38%
UBA2; UBA2, SEQ ID NO: 218, ATP BS
  Inhibition (%) by 1 μM Z36-MP5: 0.55%
UBA2; UBA2, SEQ ID NO: 219, ATP BS
  Inhibition (%) by 1 μM Z36-MP5: 7.64%
PMVK
  Inhibition (%) by 1 μM Z36-MP5: −5.60%
TOP2A, TOP2B
  Inhibition (%) by 1 μM Z36-MP5: 11.93%
PRKAG1, PRKAG2
  Inhibition (%) by 1 μM Z36-MP5: −7.97%
ABCF1
  Inhibition (%) by 1 μM Z36-MP5: −8.08%
UPF1; UPF1, SEQ ID NO: 223, ATP BS
  Inhibition (%) by 1 μM Z36-MP5: −1.93%
UPF1; UPF1, SEQ ID NO: 224, ATP BS
  Inhibition (%) by 1 μM Z36-MP5: −3.51%
B16F10 melanoma graft; [1]
  mouse survival: extended mouse survival
  tumor growth: substantial inhibition
B16F10 melanoma graft; Z36-MP5 alone
  GZMB expression and activation markers CD69, IFN-γ, CD25 and CD107 in tumor-infiltrating CD8+ T cells: upregulation
B16F10 melanoma graft; Z36-MP5 alone, graft melanomas
  CD8+ T cell TILs: moderate increase
B16F10 melanoma graft; Z36-MP5 combined with anti-PD-1
  GZMB expression and activation markers CD69, IFN-γ, CD25 and CD107 in tumor-infiltrating CD8+ T cells: augmented
B16F10 melanoma graft; Z36-MP5 combined with anti-PD-1, graft melanomas
  CD8+ T cell TILs: augmented
B16F10 melanoma graft; individual or combinational treatments, graft melanomas
  population of CD4+ T cell and Treg cells: not changed significantly
B16F10 melanoma graft; treatment alone, B16F10 graft
  tumor growth or mouse survival: did not impact
